Measured values from patent US20140148412A1, “NOVEL 17B-HETEROARYL-S[…] AS MODULATORS OF GABAA RECEPTORS” (THE REGENTS OF THE UNIVERSITY OF CLAIFORNIA, priority 2011, published 2014).
Blank lines part the entries; values can stand above or below the compound they belong to.

Legend:
[1] = biological target: GABAA receptors (rat cerebral cortex P2 homogenate); test: [35S]TBPS binding assay; conditions: inhibition of [35S]TBPS binding
Method: The cerebral cortex from male Sprague-Dawley rats (weighing 160-200 g) was removed immediately after decapitation and dissected over ice. A P2 homogenate was prepared for binding assay as previously described (Gee, 1987a). The tissue was homogenized in 0.32 M sucrose (J. T. Baker Chemical Co., Phillipsburg, N.J.) with a Teflon-coated pestle, followed by centrifugation at 1,000×g for 10 min. The supernatant was collected and centrifuged at 9,000×g for 20 min. The resultant P2 pellet was resuspended in ice-cold 50 mM sodium potassium phosphate buffer (pH 7.4) containing 200 mM NaCl and used immediately in binding assays. A 2 nM concentration of [^35S]TBPS (86 Ci/mmol; New England Nuclear, Boston, Mass.) was incubated with 100 μL of tissue homogenate (10% w/v) in the presence or absence of 5 μM GABA (Sigma Chem. Co., St. Louis, Mo.) and 5 μL aliquots of test drug dissolved in dimethyl sulfoxide (Sigma Chem. Co.) (≦10 μL of solvent used in all assays). At the concentration (≦1%) used, dimethyl sulfoxide had no effect on specific [^35S]TBPS binding. […] Filter-bound radioactivity was quantified by liquid scintillation spectrophotometry. The data were evaluated by nonlinear regression (GraphPad, Inc., San Diego, Calif.) to obtain IC50 (concentration at which half-maximal inhibition of radioligand occurs) and Imax (maximum percent inhibition) values. […]

[2] = tested on: mice; test: Mouse elevated plus maze (EPM); format: in vivo; conditions: dosed in 20% 2-hydroxypropyl-β-cyclodextrin
Method: Mouse Elevated Plus Maze (EPM)
Mice were group housed and handled daily for 3 days prior to testing in the EPM (Coulbourn Instruments). Testing was conducted in a dimly lit room, with two 60 W bulbs pointed at the ceiling near the open arms (4 ft. above the maze). The maze was cleaned between each run. Automated counting of time spent in the open arms of the maze was achieved by using Med Associates (St. Albans, Vt.) MedPC-IV program. Data were analyzed with GraphPad Prism 4.0 for statistical significance by one-way ANOVA with Dunnett's multiple comparison post-hoc test. Compounds that increase the amount of time the animals spend in the open arms have activity as anxiolytics.

[3] = tested on: mice; test: Mouse rotarod (RR); format: in vivo; conditions: dosed in 20% 2-hydroxypropyl-β-cyclodextrin
Method: Naïve mice were trained on a RR (Columbus Instruments, Columbus, Ohio) in 4 sessions (6-15 rpm) over 2 days to successfully complete the 2-min trial prior to final testing (6 rpm). On day 3, the mice were administered compound and tested over a period of 360 min at various intervals. The percentage of animals remaining on the RR throughout each 2-min trial was recorded. The results that coincided with the time of peak effect were analyzed by the method of Litchfield and Wilcoxon (Litchfield and Wilcoxon, J. Pharmacol. Exp. Ther., 1949, 96, 99) to determine the AD50 (ataxic half-maximal dose where half of the mice fail the RR assay). Compounds that have activity in the rotarod assay can indicate CNS depressive activity and sedative activity.

[4] = tested on: pentylenetetrazole-induced seizures; test: Anticonvulsant assay, protection from pentylenetetrazole-induced seizures; format: in vivo; conditions: oral dosing in 20% 2-hydroxypropyl-β-cyclodextrin; dose protecting half the animals from seizures
Method: The ability of compounds to protect against pentylenetetrazole-induced seizures was carried out as described by Hogenkamp, et al. J. Med. Chem. 2007, 50, 3369. The dose that protected half the animals from seizures was determined as the ED50.

[5] = biological target: T1, human α1β1γ2 GABAA receptors (Homo sapiens, UniProt P14867+P18505); test: Oocyte electrophysiology, modulation of EC10 GABA response; format: cell-based; conditions: oocytes expressing human α1β1γ2 GABAA receptors; % modulation above EC10 GABA control
T1 construct: expressed in transfected cells
Method: Preparation, micro-injection and maintenance of oocytes was as previously described (Ng et al., Proc. Natl. Acad. Sci., 2007, 104, 8059). Individual oocytes were injected with 0.005-50 ng of each subunit mRNA as follows (ratio of subunits in parentheses): GABAA receptor subunit combinations (α1,2, or 3, β1,2, or 3, γ2L or δ): (5:1:1). Stage IV-V oocytes were plucked from ovary membranes, defolliculized with collagenase Type IA (Worthington's) for 45 min and rinsed 10 times with Ringer's salt solution. cRNA was injected at 50 nL. Oocytes were tested 3-28 days after injection (n=3-7 per compound), in Ringer's salt solution by linear drug application method using electrodes with […] tip resistance. Changes in membrane current were passed through a pre-amp, then through a T200 patch amplifier (Axon Instruments), with a bandpass filter 2 kHz. pClamp software was used to monitor, record, and analyze data. All compounds were tested with a 30 second pretreatment prior to co-application with EC10 (concentration of GABA that evokes 10% of the maximum response) GABA for the control response. Responses in presence of test compound were calculated as % modulation above control. Concentration-response curves were fit to non-linear regression analysis on Prism 4.0 (GraphPad, San Diego, Calif.) for % maximal stimulation and EC50. […]

T1 sequence (P14867 28-456): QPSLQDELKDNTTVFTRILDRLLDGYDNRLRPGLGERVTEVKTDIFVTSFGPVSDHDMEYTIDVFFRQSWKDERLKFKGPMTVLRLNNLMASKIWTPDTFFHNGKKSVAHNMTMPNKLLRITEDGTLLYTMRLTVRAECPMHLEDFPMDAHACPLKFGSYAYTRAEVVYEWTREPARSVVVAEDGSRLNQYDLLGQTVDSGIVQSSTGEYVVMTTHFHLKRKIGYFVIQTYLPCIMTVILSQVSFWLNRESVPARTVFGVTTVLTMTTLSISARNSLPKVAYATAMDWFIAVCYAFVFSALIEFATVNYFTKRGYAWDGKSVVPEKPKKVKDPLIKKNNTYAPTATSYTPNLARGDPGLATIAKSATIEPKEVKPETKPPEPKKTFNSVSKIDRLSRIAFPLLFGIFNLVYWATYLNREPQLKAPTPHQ
T1 sequence (P18505 26-474): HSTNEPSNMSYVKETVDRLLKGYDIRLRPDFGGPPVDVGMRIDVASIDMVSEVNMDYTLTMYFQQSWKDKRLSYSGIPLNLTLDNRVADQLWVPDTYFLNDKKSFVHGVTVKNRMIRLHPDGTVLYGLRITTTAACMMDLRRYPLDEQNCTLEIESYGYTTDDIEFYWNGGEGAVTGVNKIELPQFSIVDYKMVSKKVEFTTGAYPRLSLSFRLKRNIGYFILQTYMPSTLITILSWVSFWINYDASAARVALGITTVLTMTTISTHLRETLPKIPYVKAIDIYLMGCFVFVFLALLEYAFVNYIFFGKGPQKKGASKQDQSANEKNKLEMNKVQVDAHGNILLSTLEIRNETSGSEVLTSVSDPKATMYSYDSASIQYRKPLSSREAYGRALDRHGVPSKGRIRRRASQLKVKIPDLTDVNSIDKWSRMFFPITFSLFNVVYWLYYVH
T1 sequence (P18507 40-475 partner): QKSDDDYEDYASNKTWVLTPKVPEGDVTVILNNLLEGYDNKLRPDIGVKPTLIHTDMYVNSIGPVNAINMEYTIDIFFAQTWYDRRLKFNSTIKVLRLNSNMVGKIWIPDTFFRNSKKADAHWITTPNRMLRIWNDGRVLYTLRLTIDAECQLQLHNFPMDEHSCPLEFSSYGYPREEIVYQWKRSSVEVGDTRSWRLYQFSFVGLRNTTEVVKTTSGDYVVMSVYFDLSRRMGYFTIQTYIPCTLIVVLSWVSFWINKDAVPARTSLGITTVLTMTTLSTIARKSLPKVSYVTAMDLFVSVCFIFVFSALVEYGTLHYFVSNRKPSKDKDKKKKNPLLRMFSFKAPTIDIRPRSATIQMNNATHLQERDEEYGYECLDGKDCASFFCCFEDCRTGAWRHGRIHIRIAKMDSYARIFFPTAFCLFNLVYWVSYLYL

melting point: 192 to 193 °C
SMILES: C[C@@]1(O)CC[C@@]2(C)[C@@H](CC[C@@H]3[C@@H]2CC[C@]2(C)[C@@H](c4cc(CO)no4)CC[C@@H]32)C1

SMILES: C[C@@]1(O)CC[C@@]2(C)[C@@H](CC[C@@H]3[C@@H]2CC[C@]2(C)[C@@H](c4cn5ccccc5n4)CC[C@@H]32)C1 [2-[3α-Hydroxy-3β-methyl-5α-androstan-17β-yl]-imidazo[1,2-a]pyridine]
IC50 [1]: 1000 nM | Imax (maximum percent inhibition) [1]: 100%

SMILES: C[C@@]1(O)CC[C@@]2(C)[C@@H](CC[C@@H]3[C@@H]2CC[C@]2(C)[C@@H](c4cc(CO)on4)CC[C@@H]32)C1 [3-[3α-hydroxy-3β-methyl-5α-androstan-17β-yl]-5-(hydroxymethyl)isoxazole]
melting point: 198.5 to 200 °C | minimum effective oral dose [2]: 1 mg/kg | oral AD50 (ataxic half-maximal dose) [3]: 43 mg/kg | ED50 [4]: 4 mg/kg

SMILES: C[C@@]1(O)CC[C@@]2(C)[C@@H](CC[C@@H]3[C@@H]2CC[C@]2(C)[C@@H](c4ccno4)CC[C@@H]32)C1 [5-[3α-hydroxy-3β-methyl-5α-androstan-17β-yl]-isoxazole]
maximum modulation [5]: 400%
